Experimental data as given in patent US7932270B2 (Cytokinetics, Inc., priority 2006, dated 2011).

Molecular target: T1, chicken gizzard smooth muscle myosin subfragment-1 chemically crosslinked to cardiac or skeletal actin (Gallus gallus, UniProt P10587)
T1 construct: chicken gizzard smooth muscle myosin subfragment-1; from tissue; host or cells: chicken gizzard
Test: Smooth muscle myosin ATPase dose response assay (pyruvate kinase/horseradish peroxidase/pyruvate oxidase-coupled, amplex red fluorescence)
Type: biochemical
Conditions: read-out: IC50 Arithmetic Mean
Summary of the method: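 ATPase monitored by amplex red fluorescence (ex 480/em 615 nm) via pyruvate oxidase/HRP coupling, pH 7.00, ATP 0.15 mM. Enzyme: smooth muscle S1-actin crosslinked conjugate, amount set empirically by titration. Dose-response fitted with 4-parameter Hill equation for IC50.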

T1 sequence (P02607 2-151): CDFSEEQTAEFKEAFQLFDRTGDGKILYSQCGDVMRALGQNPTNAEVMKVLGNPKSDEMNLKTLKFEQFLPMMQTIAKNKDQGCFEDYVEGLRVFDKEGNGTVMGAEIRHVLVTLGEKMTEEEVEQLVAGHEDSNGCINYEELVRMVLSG
T1 sequence (P10587 84-789): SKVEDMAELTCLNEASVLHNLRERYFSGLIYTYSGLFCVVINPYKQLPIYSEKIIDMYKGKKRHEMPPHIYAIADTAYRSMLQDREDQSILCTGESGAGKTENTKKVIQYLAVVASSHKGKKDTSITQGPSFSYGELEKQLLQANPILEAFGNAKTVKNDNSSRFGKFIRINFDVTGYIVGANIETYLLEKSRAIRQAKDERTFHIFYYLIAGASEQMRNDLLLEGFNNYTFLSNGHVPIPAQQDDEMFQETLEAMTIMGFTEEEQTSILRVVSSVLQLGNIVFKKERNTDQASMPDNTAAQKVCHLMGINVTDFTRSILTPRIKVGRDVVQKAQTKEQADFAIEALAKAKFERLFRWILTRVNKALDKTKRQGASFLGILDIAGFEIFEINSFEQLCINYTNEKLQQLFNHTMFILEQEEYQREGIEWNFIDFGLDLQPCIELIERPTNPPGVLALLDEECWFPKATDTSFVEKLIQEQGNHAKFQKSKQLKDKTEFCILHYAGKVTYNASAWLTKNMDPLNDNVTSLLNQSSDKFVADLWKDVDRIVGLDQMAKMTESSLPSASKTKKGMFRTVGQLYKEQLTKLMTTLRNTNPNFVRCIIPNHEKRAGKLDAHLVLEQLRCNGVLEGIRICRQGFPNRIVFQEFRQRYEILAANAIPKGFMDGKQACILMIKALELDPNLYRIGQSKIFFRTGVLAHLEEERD

IC50 | SMILES
797 nM | O=C(NCc1cccnc1)c1ccc(-c2cccs2)nc1NCCc1ccccn1 [{2-[(2-(2-pyridyl)ethyl)amino]-6-(2-thienyl)(3-pyridyl)}-N-(3-pyridylmethyl)carboxamide]
88 nM | O=C(NCc1cccnc1)c1cc2c(nc1NCCc1cccc(F)c1)-c1ccccc1C2=O [(2-{[2-(3-fluorophenyl)ethyl]amino}-5-oxoindeno[3,2-b]pyridin-3-yl)-N-(3-pyridylmethyl)carboxamide]
152 nM | C[C@H](CNC(=O)c1ccc(-c2ccccc2C#N)nc1NCCc1cccc(F)c1)N(C)C(=O)CN
5210 nM | O=C(Nc1ccncc1)c1ccc(-c2ccccc2)nc1NCCc1ccccn1 [{6-phenyl-2-[(2-(2-pyridyl)ethyl)amino](3-pyridyl)}-N-(4-pyridyl)carboxamide]
2490 nM | Cn1cc(-c2nc(NCCc3cccc(F)c3)c(C(=O)NCCCNC(=O)CN)cc2F)cn1 [2-amino-N-{3-[(5-fluoro-2-{[2-(3-fluorophenyl)ethyl]amino}-6-(1-methylpyrazol-4-yl)(3-pyridyl))carbonylamino]propyl}acetamide]
1270 nM | N#Cc1ccccc1-c1ccc(C(=O)NC[C@@H]2CCCN2C(=O)CCCN)c(NCCc2cccc(F)c2)n1 [N-{[(2S)-1-(4-aminobutanoyl)pyrrolidin-2-yl]methyl}(6-(2-cyanophenyl)-2-{[2-(3-fluorophenyl)ethyl]amino}(3-pyridyl))carboxamide]
1860 nM | Cn1cc(-c2ccc(C(=O)NCc3ccn(CCN)n3)c(NCCc3cccc(F)c3)n2)cn1 [N-{[1-(2-aminoethyl)pyrazol-3-yl]methyl}(2-{[2-(3-fluorophenyl)ethyl]amino}-6-(1-methylpyrazol-4-yl)(3-pyridyl))carboxamide]
214 nM | CN1CCC[C@@H]1CNC(=O)c1ccc(-c2ccccc2C#N)nc1NCCc1cccc(F)c1 [N-[((2R)-1-methylpyrrolidin-2-yl)methyl](6-(2-cyanophenyl)-2-{[2-(3-fluorophenyl)ethyl]amino}(3-pyridyl))carboxamide]
819 nM | N#Cc1ccccc1-c1ccc(C(=O)NC[C@@H]2CNCC(=O)N2)c(NCCc2cccc(F)c2)n1 [N-[((2S)-6-oxopiperazin-2-yl)methyl](6-(2-cyanophenyl)-2-{[2-(3-fluorophenyl)ethyl]amino}(3-pyridyl))carboxamide]
466 nM | O=C(NC[C@H]1CCN1)c1cc(F)c(-c2cn[nH]c2)nc1NCCc1cccc(F)c1 [N-[((2R)azetidin-2-yl)methyl](5-fluoro-2-{[2-(3-fluorophenyl)ethyl]amino}-6-pyrazol-4-yl(3-pyridyl))carboxamide]
92 nM | N#Cc1ccccc1-c1ccc(C(=O)NC[C@H]2CCCCN2C(=O)CN)c(NCCc2cccc(F)c2)n1 [N-{[(2R)-1-(2-aminoacetyl)(2-piperidyl)]methyl}(6-(2-cyanophenyl)-2-{[2-(3-fluorophenyl)ethyl]amino}(3-pyridyl))carboxamide]
11300 nM | N#Cc1ccccc1-c1ccc(C(=O)NC[C@H]2CCCN2S(=O)(=O)CCCN2C(=O)c3ccccc3C2=O)c(NCCc2cccc(F)c2)n1 [N-[((2R)-1-{[3-(1,3-dioxobenzo[c]azolin-2-yl)propyl]sulfonyl}pyrrolidin-2-yl)methyl](6-(2-cyanophenyl)-2-{[2-(3-fluorophenyl)ethyl]amino}(3-pyridyl))carboxamide]
412 nM | N#Cc1ccccc1-c1ccc(C(=O)NCC2CCCN(CCN=[N+]=[N-])C2=O)c(NCCc2cccc(F)c2)n1 (centres unmarked) [(6-(2-cyanophenyl)-2-{[2-(3-fluorophenyl)ethyl]amino}(3-pyridyl))-N-{[1-(3-diazo-3-azaprop-3-enyl)-2-oxo(3-piperidyl)]methyl}carboxamide]
109 nM | CC(=O)[C@H](C)CNC(=O)c1cc(F)c(-c2cnn(C)c2)nc1NCCc1cccc(F)c1 [N-((2R)-2-methyl-3-oxobutyl)(5-fluoro-2-{[2-(3-fluorophenyl)ethyl]amino}-6-(1-methylpyrazol-4-yl)(3-pyridyl))carboxamide]
2690 nM | N#Cc1ccccc1-c1ccc(C(=O)NC[C@H]2CCCCN2C(=O)OCCCl)c(NCCc2cccc(F)c2)n1 [2-chloroethyl (2R)-2-{[(6-(2-cyanophenyl)-2-{[2-(3-fluorophenyl)ethyl]amino}(3-pyridyl))carbonylamino]methyl}piperidinecarboxylate]
629 nM | O=C(NCc1cccnc1)c1ccc(-c2ccc(Cl)cc2)nc1NCCc1ccccn1 [{6-(4-chlorophenyl)-2-[(2-(2-pyridyl)ethyl)amino](3-pyridyl)}-N-(3-pyridylmethyl)carboxamide]
65 nM | N#Cc1ccccc1-c1ccc(C(=O)NCc2ccn(CCCN)n2)c(NCCc2cccc(F)c2)n1 [N-{[1-(3-aminopropyl)pyrazol-3-yl]methyl}(6-(2-cyanophenyl)-2-{[2-(3-fluorophenyl)ethyl]amino}(3-pyridyl))carboxamide]

IC50 | SMILES
8470 nM | N#Cc1ccccc1-c1ccc(C(=O)NC[C@@H]2CN(CCN)CC(=O)N2)c(NCCc2cccc(F)c2)n1 [N-{[(2R)-4-(2-aminoethyl)-6-oxopiperazin-2-yl]methyl}(6-(2-cyanophenyl)-2-{[2-(3-fluorophenyl)ethyl]amino}(3-pyridyl))carboxamide]
901 nM | Cc1cc(C(=O)NC[C@H]2CCCN2)c(NCCc2cccc(F)c2)nc1-c1cnn(C)c1 [N-[((2R)pyrrolidin-2-yl)methyl](2-{[2-(3-fluorophenyl)ethyl]amino}-5-methyl-6-(1-methylpyrazol-4-yl)(3-pyridyl))carboxamide]
16400 nM | N#CCc1ccccc1-c1ccc(C(=O)NCc2cccnc2)c(NCCc2cccc(F)c2)n1 [(6-[2-(cyanomethyl)phenyl]-2-{[2-(3-fluorophenyl)ethyl]amino}(3-pyridyl))-N-(3-pyridylmethyl)carboxamide]
713 nM | COC(=O)CCCNC(=O)c1ccc(-c2ccccc2C#N)nc1NCCc1cccc(F)c1 [methyl 4-[(6-(2-cyanophenyl)-2-{[2-(3-fluorophenyl)ethyl]amino}-3-pyridyl)carbonylamino]butanoate]
3450 nM | CNC(=O)[C@H](CN)NC(=O)c1ccc(-c2ccccc2C#N)nc1NCCc1cccc(F)c1 [(2S)-3-amino-2-[(6-(2-cyanophenyl)-2-{[2-(3-fluorophenyl)ethyl]amino}(3-pyridyl))carbonylamino]-N-methylpropanamide]
285 nM | CN(C)C(=NCc1cccc(CNC(=O)c2ccc(-c3ccccc3C#N)nc2NCCc2cccc(F)c2)n1)N(C)C [N-({6-[3,3-bis(dimethylamino)-2-azaprop-2-enyl](2-pyridyl)}methyl)(6-(2-cyanophenyl)-2-{[2-(3-fluorophenyl)ethyl]amino}(3-pyridyl))carboxamide]
34 nM | O=C(NCc1cc[nH]n1)c1ccc(-c2cn[nH]c2)nc1NCCc1cccc(F)c1 [(2-{[2-(3-fluorophenyl)ethyl]amino}-6-pyrazol-4-yl(3-pyridyl))-N-(pyrazol-3-ylmethyl)carboxamide]
9310 nM | CN(C)CCNC(=O)CNC(=O)c1ccc(-c2ccccc2C#N)nc1NCCc1cccc(F)c1 [N-[2-(dimethylamino)ethyl]-2-[(6-(2-cyanophenyl)-2-{[2-(3-fluorophenyl)ethyl]amino}(3-pyridyl))carbonylamino]acetamide]
19100 nM | O=C(NCc1cccnc1)c1ccc(-c2cccnc2)nc1NCCc1ccccn1 [N-(3-pyridylmethyl){6-(3-pyridyl)-2-[(2-(2-pyridyl)ethyl)amino](3-pyridyl)}carboxamide]
30200 nM | CN(C)c1ccc(CNC(=O)c2ccc(-c3ccccc3C#N)nc2NCCc2cccc(F)c2)cn1 [N-{[6-(dimethylamino)(3-pyridyl)]methyl}(6-(2-cyanophenyl)-2-{[2-(3-fluorophenyl)ethyl]amino}(3-pyridyl))carboxamide]
2690 nM | Cn1cc(-c2ccc(C(=O)NCc3ccn(CCCN)n3)c(NCCc3cccc(F)c3)n2)cn1 [N-{[1-(3-aminopropyl)pyrazol-3-yl]methyl}(2-{[2-(3-fluorophenyl)ethyl]amino}-6-(1-methylpyrazol-4-yl)(3-pyridyl))carboxamide]
6750 nM | CNC(=O)c1ccc(-c2ccccc2)nc1NCCc1cccc(C)c1 [N-methyl(2-{[2-(3-methylphenyl)ethyl]amino}-6-phenyl(3-pyridyl))carboxamide]
249 nM | N#Cc1ccccc1-c1ccc(C(=O)NC[C@@H](CO)NC(=O)CN)c(NCCc2cccc(F)c2)n1 [N-((1S)-1-{[(6-(2-cyanophenyl)-2-{[2-(3-fluorophenyl)ethyl]amino}(3-pyridyl))carbonylamino]methyl}-2-hydroxyethyl)-2-aminoacetamide]
74 nM | N#Cc1ccccc1-c1ccc(C(=O)NC[C@@H]2CCCCN2C(=O)CN)c(NCCc2cccc(F)c2)n1 [N-{[(2S)-1-(2-aminoacetyl)(2-piperidyl)]methyl}(6-(2-cyanophenyl)-2-{[2-(3-fluorophenyl)ethyl]amino}(3-pyridyl))carboxamide]
3250 nM | C[C@@H](CNC(=O)c1ccc(-c2ccccc2C#N)nc1NCCc1cccc(F)c1)N(C)C(=O)CN
118 nM | C[C@@H](CN=[N+]=[N-])CNC(=O)c1cc(F)c(-c2cnn(C)c2)nc1NCCc1cccc(F)c1 [N-((2R)-4-diazo-2-methyl-4-azabut-4-enyl)(5-fluoro-2-{[2-(3-fluorophenyl)ethyl]amino}-6-(1-methylpyrazol-4-yl)(3-pyridyl))carboxamide]

SMILES | IC50
Cn1cc(-c2nc(NCCc3cccc(F)c3)c(C(=O)NC[C@H]3CCCN3C(=O)CCCNC(=O)OC(C)(C)C)cc2F)cn1 [N-[((2R)-1-{4-[(tert-butoxy)carbonylamino]butanoyl}pyrrolidin-2-yl)methyl](5-fluoro-2-{[2-(3-fluorophenyl)ethyl]amino}-6-(1-methylpyrazol-4-yl)(3-pyridyl))carboxamide] | 483 nM
Cn1cc(-c2nc(NCCc3cccc(F)c3)c(C(=O)NCCCNC(=O)CNC(=O)OC(C)(C)C)cc2F)cn1 [2-[(tert-butoxy)carbonylamino]-N-{3-[(5-fluoro-2-{[2-(3-fluorophenyl)ethyl]amino}-6-(1-methylpyrazol-4-yl)(3-pyridyl))carbonylamino]propyl}acetamide] | 768 nM
